Values of other authors, collected in US20230111568A1, “SOLID DISPERSIONS OF RIFAXIMIN FOR THE TREATMENT OF OVERT HEPATIC ENCEPHALOPATHY” (Bausch Health Ireland Limited, priority 2020, published 2023).

System: complications of cirrhosis

## CO[C@H]1/C=C/O[C@@]2(C)Oc3c(C)c(O)c4c(O)c(c5c(nc6cc(C)ccn65)c4c3C2=O)NC(=O)/C(C)=C\C=C\[C@H](C)[C@H](O)[C@@H](C)[C@@H](O)[C@@H](C)[C@H](OC(C)=O)[C@@H]1C [rifaximin]
Literature (Conf. Proc. IEEE Eng. Med. Biol. Soc. 2013)
  HE recurrences, hospitalizations, adverse events, survival: protect from HE recurrences with decreased HE-related and all-cause hospitalizations without an increased rate of adverse events (AEs) or decreased survival
Literature (Conf. Proc. IEEE Eng. Med. Biol. Soc.)
  overall rates of infection, antibiotic use and other complications of cirrhosis: reduces or maintains the overall rates of infection, antibiotic use, and other complications of cirrhosis such as ascites
Literature (Journal of Gastroenterology and Hepatology 28(3))
  survival and risk of variceal bleeding, HE, SBP or HRS: independently associated with higher survival and lower risk of developing variceal bleeding, HE, SBP, or HRS
